Assay results from patent US20240033257A1, “USE OF PPAR-DELTA INHIBITOR IN COMBINATION WITH IMMUNOTHERAPEUTIC DRUG FOR PREPARING ANTI-TUMOR DRUG” (THE FIRST HOSPITAL OF JILIN UNIVERSITY, priority 2021, published 2024).

How the values were obtained:
[1] = system: B16 tumor cells (mouse melanoma cells); assay: B16 melanoma tumor-bearing mouse model, tumor growth; format: in vivo; settings: low-dose FGK45.5 (75 μg in total); inhibitors intraperitoneal once a day Day 7 to Day 16; FIG. 2a
Protocol: We used a mouse B16 melanoma model extensively used in researches and having relatively high immunogenicity (C57BL/6 B16 Tumor-Bearing Mouse Model): C57BL/6 mice (8-10-week-old, n=5/group) were subcutaneously inoculated with 7×10^5 B16 tumor cells (mouse melanoma cells), and about 8 days after inoculation of tumor cells when tumors became touchable, anti-CD40 agonistic antibody was administered.
The mice were monitored every day, and tumors were measured with calipers every four days. The tumors were measured for length (a) and width (b), and tumor volume=ab^2/2.
Dosage regimen: These tumor-bearing mice were treated using low-dose 25 μg of FGK45.5 (mouse anti-CD40 agonistic antibody) for three times, 75 μg in total (at Day 8, Day 11, and Day 14) or high-dose 40 μg for 5 times, 200 μg in total (at Day 8, Day 11, Day 14, Day 17, and Day 20) or 40 μg with Isotype Control Rat IgG for 5 times (at Day 8, Day 11, Day 14, Day 17, and Day 20). Subcutaneous injection was made between the tumor and the draining lymph node at the groin. 72 hours after the last injection of each group, samples of mouse blood serum were tested for alanine transaminase (ALT, a known indicator of liver tissue injury).
The establishment of the B16 melanoma tumor-bearing mouse model and the dosage regimens of low-dose and high-dose FGK45.5 followed Example 1. […]

[2] = system: CD19+CD24hiIgDlo/− B cells; assay: Co-culture of sorted B cell subpopulations from treated mice with CFSE-labelled CD4+ T cells; format: cell-based, mouse; settings: B cells:T cells 1:1, 72 hours; FIG. 8a
Protocol: For evaluating the function-regulating effects on CD19^+CD24^hiIgD^lo/− B cells, the experimental scheme of Example 4 was employed. 24 hours after the last GSK3787 injection (i.e., 72 hours after the last FGK45.5 injection), mice of all groups were sacrificed. CD19^+CD24^hiIgD^lo/− B cell population and CD19^+CD24^loIgD^hiB cell population were isolated form draining lymph nodes of differently treated tumor-bearing mice using flow cytometry. Purified CD4^+ T cells from normal mice were labelled with 2.5 μM CFSE in vitro. The CFSE-labelled cells were resuspended in complete RPMI 1640 culture medium at 1×10^6/ml, and transferred into a 96-well plate coated with 10 μg/ml anti-CD3E antibody at 4° C. overnight. The B cells purified from draining lymph nodes and the foregoing T cells (1:1) were co-cultured for 72 hours in the foregoing 96-well plate containing 1 μg/ml anti-CD28 mAb for use in flow cytometry assays. The proliferation of the CFSE-labelled T cells was calculated using the equation: (1-MFI value of CFSE of T Cells in Experimental Group/MFI value of CFSE of B-cell-free T Cells in Control Group)[…].

[3] = system: lymphocytes in draining lymph nodes; assay: Lymphocyte subpopulations in draining lymph nodes of B16 tumor-bearing mice (flow cytometry, cell counting); format: in vivo, mouse
Protocol: The C57BL/6 B16 tumor-bearing mouse model (mice subcutaneously inoculated with 7×10^5 B16 cells, 8 days after inoculation of tumor cells, mice with tumors touchable) of Example 1 was used. The experiment included the treatment group of low-dose FGK45.5, the treatment group of low-dose FGK45.5 in combination with the PPARδ inhibitor, the treatment group of using the PPARδ inhibitor solely, and the isotype control Rat IgG treatment group. 24 hours after the last injection of GSK3787 (i.e., 72 hours after the last FGK45.5 injection), the mice of all group were sacrificed. Cells at lymph nodes of mice from all groups were sampled for flow cytometry assays and cell counting.

[4] = system: MB49 cells (mouse bladder cancer cells); assay: MB49 bladder cancer tumor-bearing mouse model, tumor growth; format: in vivo; settings: doses and regimens of FIG. 2a; FIG. 9
From the text: From the results above, we anticipate that the PPARδ inhibitor could also enhance therapeutic effects of immunotherapeutic drug on tumors in other tumor models. In order to verify such possibility, we examined the therapeutic effects of the PPARδ inhibitor in combination with FGK45.5 on MB49 bladder cancer cell tumor-bearing mice. C57BL/6 mice (8 to 10 weeks, n=5/group, 4 groups) are subcutaneously inoculated with 7×10^5 MB49 cells (mouse bladder cancer cells) and about 8 days after inoculation of tumor cells when tumors became touchable, Rat IgG, or FGK45.5, or PPARδ inhibitor (GSK3787), or FGK45.5 in combination with PPARδ inhibitor (GSK3787) was administered. Tumor growth condition was monitored.

B16 tumor = assay: CD19+ B cell eradication experiment in B16 tumor-bearing mice, tumor growth; format: in vivo, mouse; settings: 250 μg anti-CD19 antibody (clone 1d3) intraperitoneal at day 6, 7 and 15; low-dose FGK45.5; FIG. 5b
Protocol: To some of the B16 tumor-bearing mice, the anti-CD19 antibody was used first to kill B cells, and then Rat IgG or FGK45.5 or FGK45.5 combined with the PPARδ inhibitor (GSK3787) was administered for treatment. Growth of the tumors was observed. Treatment with Rat IgG, FGK45.5, and FGK45.5 in combination with the PPARδ inhibitor were taken as control groups.
CD19^+ B cell Eradication Experiment: At the 6th day, 7th day, and 15th day after inoculation of B16 cells, 250 μg anti-CD19 antibody (clone 1d3) was administered to tumor-bearing mice through intraperitoneal injection, and the eradication rate of B cells as measured using FACS should be 90% or more.

[5] = system: human CD19+CD24hiIgDlo/− B cells; assay: Suppression of T cell IFNγ secretion by human CD19+CD24hiIgDlo/− B cells cultured with GSK3787; format: cell-based; settings: cultured 24 hours with GSK3787
Protocol: B cells were isolated and gathered from the peripheral blood of multiple normal blood donors or patients, and CD19^+CD24^hiIgD^lo/− B cells were isolated from the gathered B cells and cultured for 24 hours in complete RPMI 1640 culture medium with or without the PPARδ inhibitor GSK3787. Then these B cells were washed twice to remove the PPARδ inhibitor, resuspended in complete RPMI 1640 culture medium at 1×10^6/ml. CD4^+CD25^− T cells were isolated from blood of normal blood donors. The treated CD19^+CD24^hiIgD^lo/− B cells and these T cells (1:1) were co-cultured for 48 hours, Dynabeads were coated with anti-human CD3 mAb and anti-human CD28 mAb and placed on a 96-well U-shaped culture plate. Golgi^plug (BD Biosciences), PMA and ionomycin were added into the culture medium together for 6 hours. CD4^+ T cells were surface stained, perforated in the cytomembrane, and stained intracellularly using fluorescence labelled anti-human IFNγ, then analyzed using flow cytometry.

[6] = system: CD19+CD24hiIgDlo/− B cells; assay: Surface marker, PPARδ and Ki67 flow cytometry of B cell subpopulations in draining lymph nodes; format: in vivo, mouse
Protocol: For verifying this assumption, the experimental scheme of Example 4 was used. The mice of all groups were sacrificed at the 24th hour after the last injection of GSK3787 (i.e., the 72nd hour after the last FGK45.5 injection), and various surface marker analyses were conducted on the B cells isolated from lymph nodes of tumor-bearing mice to identify surface markers of B cell subpopulations having immunosuppressive effects and the effects of different treatments on B cell subpopulations having immunosuppressive effects.
At the 24th hour after the last GSK3787 injection, tumor draining lymph nodes of differently treated mice were sampled. The lymph nodes at the same body portion in natural, tumor-free mice were also sampled as the control group. The lymph nodes were ground into single-cell suspension. Cells from different lymph nodes were stained using various fluorescence labeling antibodies for flow cytometry assays.

[7] = system: B cells from draining lymph nodes; assay: Inhibition of CFSE-labelled CD4+ T cell proliferation by B cells from draining lymph nodes of treated tumor-bearing mice; format: cell-based, mouse; settings: B cells:T cells 1:1, co-cultured 72 hours; FIG. 5a
Protocol: The next point was to verify whether the PPARδ inhibitor enhances immunotherapy through affecting B cells. First, the ability of B cells in draining lymph nodes of tumor-bearing mice treated differently to inhibit proliferation of activated T cells was examined in vitro. Purified C D4^+ T cells from normal mice were labelled using 2.5 μM CFSE in vitro. The CFSE-labelled cells were then resuspended in complete RPMI 1640 culture medium at 1×10^6/ml, and transferred into a 96-well plate that had been coated with 10 μg/ml anti-CD3ε antibody at 4° C. overnight. B cells purified from draining lymph nodes and the foregoing T cells (1:1) were co-cultured for 72 hours in the foregoing 96-well plate containing 1 μg/ml anti-CD28 mAb, and a flow cytometry assay was conducted. The cell proliferation rate of the CFSE-labelled T cells was calculated using the equation: (1-MFI value of CFSE of T Cells in Experimental Group/MFI value of CFSE of B-cell-free T Cells in Control Group)×100%. MFI refers to the mean fluorescence intensity.

| Structure (SMILES) | anti-tumor effects (speed of tumor growth) [1] | suppressive effects of CD19+CD24hiIgDlo/− B cells from draining lymph nodes of tumor-bearing mice on proliferation of activated CD4+ T cells [2] | proportions of CD4/CD19 cells in draining lymph nodes ([3]; FIG. 4c) | absolute count of CD45+ cells in draining lymph nodes ([3]; low-dose FGK45.5, 24 hours after last GSK3787 injection, FIG. 4a) | absolute count and proportion of CD11c+ cells in draining lymph nodes ([3]; low-dose FGK45.5, FIG. 4b) | cell counts of CD4+ T and CD8+ T cells and their proportions in CD45+ cells in draining lymph nodes ([3]; low-dose FGK45.5, FIG. 4b) | therapeutic effects on MB49 tumors, GSK3787 in combination with FGK45.5 [4] | therapeutic effects on MB49 tumors, used solely [4] | therapeutic effects on B16 tumors with B cells eradicated (B16 tumor) | suppressive activity of human CD19+CD24hiIgDlo/− B cells (IFNγ secretion of activated T cells) ([5]; B cells of cancer patients (NSCLC)) | suppressive activity of human CD19+CD24hiIgDlo/− B cells (IFNγ secretion of activated T cells) ([5]; B cells of healthy subjects) | proportion of the CD19+CD24hiIgDlo/− B cell subpopulation in draining lymph nodes ([6]; B16 tumor-bearing mice, 24th hour after last GSK3787 injection, FIGS. 7a, b) | Ki67 expression of CD19+CD24hiIgDlo/− B cells ([6]; FIG. 7e, f) | inhibition of CD4 T cell proliferation by B cells from draining lymph nodes of treated tumor-bearing mice [7] |
| --- | --- | --- | --- | --- | --- | --- | --- | --- | --- | --- | --- | --- | --- | --- |
| O=C(Nc1ccncc1)c1cc([N+](=O)[O-])ccc1Cl [T0070907] | almost no anti-tumor effects | – | – | – | – | – | – | – | – | – | – | – | – | – |
| O=C(NCCS(=O)(=O)c1ccc(C(F)(F)F)cn1)c1ccc(Cl)cc1 [GSK3787] | almost no anti-tumor effects | reduced suppressive effects | basically comparable | did not change | basically the same | consistent | could further improve the effect of FGK45.5 | no therapeutic effects | lost its function of enhancing anti-tumor effects of FGK45.5 | significantly reduced | significantly reduced | decreased significantly | reduced increase in Ki67 expression | decreased inhibition |
